# According to patent US8367695B2, “Condensed tetrahydroquinoline derivative and use thereof for medical purposes” (Mitsubishi Tanabe Pharma Corporation, priority 2007, dated 2013):
# Target: T1, Glucocorticoid Receptor (GR), CHO-GRE-Luc #35 cells (Cricetulus griseus, UniProt A0A9J7F8I2)
# T1 sequence (A0A9J7F8I2 1-774): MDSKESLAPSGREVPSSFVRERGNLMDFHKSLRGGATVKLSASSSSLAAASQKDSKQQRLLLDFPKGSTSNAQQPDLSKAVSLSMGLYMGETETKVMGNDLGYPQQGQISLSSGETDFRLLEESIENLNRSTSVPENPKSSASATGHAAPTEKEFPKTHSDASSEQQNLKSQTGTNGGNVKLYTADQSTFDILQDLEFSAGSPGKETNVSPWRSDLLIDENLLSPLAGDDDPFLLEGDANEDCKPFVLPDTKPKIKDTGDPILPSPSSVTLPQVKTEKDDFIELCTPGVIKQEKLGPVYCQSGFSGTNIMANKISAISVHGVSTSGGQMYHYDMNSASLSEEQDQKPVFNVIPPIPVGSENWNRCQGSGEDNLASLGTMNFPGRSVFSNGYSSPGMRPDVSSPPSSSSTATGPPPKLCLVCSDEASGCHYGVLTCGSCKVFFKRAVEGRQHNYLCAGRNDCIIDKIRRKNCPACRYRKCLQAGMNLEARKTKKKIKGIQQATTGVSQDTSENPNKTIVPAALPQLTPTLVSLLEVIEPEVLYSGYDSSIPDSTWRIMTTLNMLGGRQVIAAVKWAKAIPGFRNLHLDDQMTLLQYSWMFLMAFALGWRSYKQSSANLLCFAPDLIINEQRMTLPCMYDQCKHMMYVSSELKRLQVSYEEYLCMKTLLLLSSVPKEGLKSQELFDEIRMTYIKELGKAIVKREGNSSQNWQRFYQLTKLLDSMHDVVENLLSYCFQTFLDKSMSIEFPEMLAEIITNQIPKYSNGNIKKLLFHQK
# Test: Glucocorticoid receptor function test using transgenic-recombinant cell (GRE-luciferase)
# Assay type: cell-based
# Settings: not given
# Method: Glucocorticoid Receptor Function Test Using Transgenic-Recombinant Cell
# Transgenic-recombinant cell was prepared by our company (Yokohama, JP). In Hokkaido System Science Co., Ltd., a cis-element wherein two glucocorticoid responsive elements (GRE) present in the […] promoter region of mouse were connected in tandem was produced on order from synthetic DNA. The gene was incorporated into a plasmid vector having a gene encoding luciferase enzyme. The plasmid was incorporated into CHO-K1 cell to give a transfectant. The expression cell (CHO-GRE-Luc #35) produces luciferase instead of the object protein under regulation of a transcription region involved in the expression of the object protein. That is, using the cell, a substance that controls production of the object protein can be screened for by replacing the substance with the luciferase activity. Fetal Bovine Serum (FBS), L-glutamine, penicillin-streptomycin solution, PBS(−), trypsin-EDTA solution, Opti-MEM medium and G418 were obtained from GIBCO (Auckland, N.Z.). A 10 cm dish and DMEM:HAM′S F12 medium were obtained from IWAKI (Chiba, JP). A 96 well white plate was obtained from Corning (Corning, N.Y.). Bright-Glo was obtained from Promega (Madison, US). Dexamethasone was obtained from Sigma Chemicals (St. Louis, Mo.).
# CHO-GRE-Luc #35 cells were cultured for several days in a 10 cm dish in a medium (10% FBS/DMEM:HAM'S F12/2.5 mM L-glutamine/50 U/mL penicillin/25 μg/mL streptomycin/500 μg/mL G418). Sub-confluent cells were washed with a suitable amount of PBS(−), 1 ml of Trypsin-EDTA was added and the cells were stood still in a CO2 incubator at 37° C. for 3 min. A 10-fold amount of Opti-MEM medium was added to give a suspension, which was placed in a centrifugal tube and centrifuged (25° C., 1,000 rpm, 5 min). The supernatant was removed, and the cells were suspended in 5 ml of Opti-MEM medium and counted.
# Storage solutions (5-20 mM) of the compound were prepared with DMSO. The storage solutions were diluted with DMSO to 1 mM, and further diluted 100-fold with distilled water or Opti-MEM medium to give solutions. The preparations were diluted with 1% DMSO solution to each concentration. As GR agonist, 10 nM dexamethasone was used. 0.2% DMSO was present at the time of the function assay.
# The prepared compound solutions (evaluation compound solution or 1% DMSO solution 10 μL+dexamethasone or 1% DMSO solution 10 μL) were added to the plate. After the addition, the place was stood still in a CO2 incubator at 37° C. for about 6 hr. After the reaction, Bright-Glo was added at 20 μL/well, and the mixture was gently shaken and measured by a microplate luminometer (Turner Designs Instrument).
# The IC50 value (nM) of the evaluation compound against GR stimulation with dexamethasone was calculated using Prism 3.0 as an analysis software and assuming one-site competition.
row,SMILES,IC50
1,"CC1(C)Nc2c(cc(-c3cccc4nncn34)c3c2CCC3)C(C)(C)C1=O [Example 17, 2,2,4,4-tetramethyl-6-([1,2,4]triazolo[4,3-a]pyridin-5-yl)-2,3,4,7,8,9-hexahydro-1H-cyclopenta[h]quinolin-3-one]",91 nM
2,"C=CCC1(C)C(=O)C(C)(C)Nc2c1cc(-c1cccc3cc[nH]c13)c1c2OCO1 (stereo not shown) [Example 78, 6-allyl-4-(1H-indol-7-yl)-6,8,8-trimethyl-6,7,8,9-tetrahydro-[1,3]dioxolo[4,5-h]quinolin-7-one]",94 nM

# Same assay, conditions: against GR stimulation with 10 nM dexamethasone, luciferase, about 6 hr; read-out: GR (IC50: nM)
row,SMILES,IC50
1,"Cc1noc(C)c1-c1cc2c(c3c1CCC3)NC(C)(C)C(=O)C2(C)C [Example 2, 6-(3,5-dimethylisoxazol-4-yl)-2,2,4,4-tetramethyl-2,3,4,7,8,9-hexahydro-1H-cyclopenta[h]quinolin-3-one]",30 nM
2,"Cc1nnn(C)c1-c1cc2c(c3c1CCC3)NC(C)(C)C(=O)C2(C)C [Example 4, 6-(3,5-dimethyl-3H-[1,2,3]triazol-4-yl)-2,2,4,4-tetramethyl-2,3,4,7,8,9-hexahydro-1H-cyclopenta[h]quinolin-3-one]",86 nM
3,"CC1(C)Nc2c(cc(-c3ccnc4cc[nH]c34)c3c2CCC3)C(C)(C)C1=O [Example 13, 2,2,4,4-tetramethyl-6-(1H-pyrrolo[3,2-b]pyridin-7-yl)-2,3,4,7,8,9-hexahydro-1H-cyclopenta[h]quinolin-3-one]",31 nM
4,"CC1(C)Nc2c(cc(-c3cccc4nccn34)c3c2CCC3)C(C)(C)C1=O [Example 14, 6-(imidazo[1,2-a]pyridin-5-yl)-2,2,4,4-tetramethyl-2,3,4,7,8,9-hexahydro-1H-cyclopenta[h]quinolin-3-one]",21 nM
5,"CC1(C)Nc2c(cc(-c3cccc4ncccc34)c3c2CCC3)C(C)(C)C1=O [Example 20, 2,2,4,4-tetramethyl-6-(quinolin-5-yl)-2,3,4,7,8,9-hexahydro-1H-cyclopenta[h]quinolin-3-one]",74 nM
6,"CC1(C)Nc2c(cc(-c3ccnc4ncccc34)c3c2CCC3)C(C)(C)C1=O [Example 21, 2,2,4,4-tetramethyl-6-([1,8]naphthyridin-4-yl)-2,3,4,7,8,9-hexahydro-1H-cyclopenta[h]quinolin-3-one]",53 nM
7,"C=C1C(C)(C)Nc2c(cc(-c3c(C)ncn3C)c3c2CCC3)C1(C)C [Example 29, 6-(3,5-dimethyl-3H-imidazol-4-yl)-2,2,4,4-tetramethyl-3-methylene-2,3,4,7,8,9-hexahydro-1H-cyclopenta[h]quinoline]",69 nM
8,"C=CCC1(C)C(=O)C(C)(C)Nc2c1cc(-c1ccc(O)cc1C)c1c2CCC1 (stereo not shown) [Example 50, 4-allyl-6-(4-hydroxy-2-methylphenyl)-2,2,4-trimethyl-2,3,4,7,8,9-hexahydro-1H-cyclopenta[h]quinolin-3-one]",61 nM
9,"C=CCC1(C)C(=O)C(C)(C)Nc2c1cc(-c1c(C)noc1C)c1c2CCC1 (stereo not shown) [Example 51, 4-allyl-6-(3,5-dimethylisoxazol-4-yl)-2,2,4-trimethyl-2,3,4,7,8,9-hexahydro-1H-cyclopenta[h]quinolin-3-one]",33 nM
10,"C=CCC1(C)C(=O)C(C)(C)Nc2c1cc(-c1cccc3nccn13)c1c2CCC1 (stereo not shown) [Example 57, 4-allyl-6-(imidazo[1,2-a]pyridin-5-yl)-2,2,4-trimethyl-2,3,4,7,8,9-hexahydro-1H-cyclopenta[h]quinolin-3-one]",69 nM
11,"CCC1(C)C(=O)C(C)(C)Nc2c1cc(-c1cccc3nccn13)c1c2CCC1 (stereo not shown) [Example 58, 4-ethyl-6-(imidazo[1,2-s]pyridin-5-yl)-2,2,4-trimethyl-2,3,4,7,8,9-hexahydro-1H-cyclopenta[h]quinolin-3-one]",37 nM
12,"CC#CCC1(C)C(=O)C(C)(C)Nc2c1cc(-c1cccc3nccn13)c1c2CCC1 (stereo not shown) [Example 63, 4-(2-butynyl)-6-(imidazo[1,2-a]pyridin-5-yl)-2,2,4-trimethyl-2,3,4,7,8,9-hexahydro-1H-cyclopenta[h]quinolin-3-one]",48 nM
13,"Cc1noc(C)c1-c1cc2c(c3c1OCO3)NC(C)(C)C(=O)C2(C)C [Example 69, 4-(3,5-dimethylisoxazol-4-yl)-6,6,8,8-tetramethyl-6,7,8,9-tetrahydro-[1,3]dioxolo[4,5-h]quinolin-7-one]",77 nM
14,"CC1(C)Nc2c(cc(-c3cccc4nccn34)c3c2OCO3)C(C)(C)C1=O [Example 71, 4-(imidazo[1,2-a]pyridin-5-yl)-6,6,8,8-tetramethyl-6,7,8,9-tetrahydro-[1,3]dioxolo[4,5-h]quinolin-7-one]",59 nM
15,"CC1(C)Nc2c(cc(-c3cccc4ncccc34)c3c2OCO3)C(C)(C)C1=O [Example 72, 6,6,8,8-tetramethyl-4-(quinolin-5-yl)-6,7,8,9-tetrahydro-[1,3]dioxolo[4,5-h]quinolin-7-one]",40 nM
16,"CC1(C)Nc2c(cc(-c3cccc4nccn34)c3c2OC(F)(F)O3)C(C)(C)C1=O [Example 82, 2,2-difluoro-4-(imidazo[1,2-a]pyridin-5-yl)-6,6,8,8-tetramethyl-6,7,8,9-tetrahydro-[1,3]dioxolo[4,5-h]quinolin-7-one]",111 nM
17,"Cc1noc(C)c1-c1cc2c(c3c1OCC3)NC(C)(C)C(=O)C2(C)C [Example 84, 6-(3,5-dimethylisoxazol-4-yl)-2,2,4,4-tetramethyl-1,2,3,4,8,9-hexahydro-furo[2,3-h]quinolin-3-one]",49 nM
18,"CC1(C)Nc2c(cc(-c3cccc4nccn34)c3c2CCO3)C(C)(C)C1=O [Example 88, 6-(imidazo[1,2-a]pyridin-5-yl)-2,2,4,4-tetramethyl-1,2,3,4,8,9-hexahydro-furo[2,3-h]quinolin-3-one]",66 nM
19,"CC1(C)Nc2c(cc(-c3ccnc4ncccc34)c3c2CCO3)C(C)(C)C1=O [Example 92, 2,2,4,4-tetramethyl-6-([1,8]naphthyridin-4-yl)-1,2,3,4,8,9-hexahydro-furo[2,3-h]quinolin-3-one]",73 nM
20,"Cc1onc(CO)c1-c1cc2c(c3ccoc13)NC(C)(C)C(=O)C2(C)C [Example 94, 6-(3-hydroxymethyl-5-methylisoxazol-4-yl)-2,2,4,4-tetramethyl-1,2,3,4-tetrahydro-furo[2,3-h]quinolin-3-one]",66 nM
21,"CC1(C)Nc2c(cc(-c3cccc4nccn34)c3occc23)C(C)(C)C1=O [Example 98, 6-(imidazo[1,2-a]pyridin-5-yl)-2,2,4,4-tetramethyl-1,2,3,4-tetrahydro-furo[2,3-h]quinolin-3-one]",31 nM
22,"CC1(C)Nc2c(cc(-c3cncc4nccn34)c3occc23)C(C)(C)C1=O [Example 100, 6-(imidazo[1,2-a]pyrazin-5-yl)-2,2,4,4-tetramethyl-1,2,3,4-tetrahydro-furo[2,3-h]quinolin-3-one]",47 nM
23,"CC1(C)Nc2c(cc(-c3cccc4ncccc34)c3occc23)C(C)(C)C1=O [Example 101, 2,2,4,4-tetramethyl-6-(quinolin-5-yl)-1,2,3,4-tetrahydro-furo [2,3-h]quinolin-3-one]",37 nM
